In patent US9255072B2, “Pyrazole compounds and thiazole compounds as protein kinases inhibitors” (National Health Rsearch Institutes, priority 2011, dated 2016):
Like-named read-outs stand apart in the source and are kept apart here.

Assays:
Assay type in all cases: biochemical
[1] = molecular target: T1, wt-FLT3 (Homo sapiens, UniProt P36888); test: FLT3 WT Kinase-Glo assay; settings: FLT3 WT Kinase-Glo, 1 μM ATP; read-out: IC50
T1 construct: FLT3 kinase catalytic domain (residues Y567˜S993); made in house; host or cells: Sf9 insect cells (baculovirus, pBac-PAK8-GST-FLT3-KD plasmid)
T1 sequence (P36888 567-993): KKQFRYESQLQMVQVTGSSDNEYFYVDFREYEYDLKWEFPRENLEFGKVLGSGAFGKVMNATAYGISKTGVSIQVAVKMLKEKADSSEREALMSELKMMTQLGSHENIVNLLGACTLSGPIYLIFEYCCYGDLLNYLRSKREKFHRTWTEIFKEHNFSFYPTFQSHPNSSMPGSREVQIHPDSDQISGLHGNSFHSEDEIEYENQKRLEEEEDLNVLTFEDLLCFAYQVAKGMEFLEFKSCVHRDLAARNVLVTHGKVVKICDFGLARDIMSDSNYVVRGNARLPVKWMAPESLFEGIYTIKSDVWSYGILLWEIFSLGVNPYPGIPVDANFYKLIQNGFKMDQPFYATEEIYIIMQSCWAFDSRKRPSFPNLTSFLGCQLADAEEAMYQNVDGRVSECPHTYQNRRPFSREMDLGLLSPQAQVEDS
Procedure: GST-FLT3-KD^WT containing the FLT3 kinase catalytic domain (residues Y567˜S993) were expressed in Sf9 insect cells transfected the baculovirus containing pBac-PAK8-GST-FLT3-KD plasmid. […] Following incubation, 50 μl Kinase-Glo Plus Reagent (Promega, Madison, Wis., USA) was added to each well and the mixture was incubated at 25° C. for 20 min. A 70-μL aliquot of each reaction mixture was transferred to a black microtiter plate and the luminescence was measured on Wallac Vector 1420 multilabel counter (PerkinElmer, Shelton, Conn., USA).

[2] = molecular target: T2, VEGFR2 (Homo sapiens, UniProt P35968); test: VEGFR2 Kinase-Glo kinase assay; settings: 1 μM ATP
T2 construct: GST-VEGFR2 (residues V789-V1356); GST (N); made in house; host or cells: Sf9 insect cells
Procedure: (§1) The recombinant GST-VEGFR1 (residues R781-I1338) or GST-VEGFR2 (residues V789-V1356) containing kinase domain were expressed in Sf9 insect cells. The kinase assay were carried out in 96-well plates with tested compound in a final volume of 50 μl reaction at 30° C. for 120 minutes with following components: 25 mM HEPES pH 7.4, 10 mM MgCl2, 4 mM MnCl2, 0.5 mM Na3VO4, 2 mM DTT, 0.02% Triton X100, 0.01% BSA, 1 μM ATP, 2 μM polyGlu4:Tyr peptide, 50˜100 ng recombinant VEGFR1 or VEGFR2. Following incubation, 50 μl Kinase-Glo Plus Reagent (Promega, Madison, Wis., USA) was added to each well and the mixture was incubated at 25° C. for 20 min. A 70-μL aliquot of each reaction mixture was transferred to a black microtiter plate and the luminescence was measured on Wallac Vector 1420 multilabel counter (PerkinElmer, Shelton, Conn., USA).

[3] = molecular target: T3, VEGFR1 (Homo sapiens, UniProt P17948); test: VEGFR1 Kinase-Glo kinase assay; settings: 1 μM ATP
T3 construct: GST-VEGFR1 (residues R781-I1338); GST (N); made in house; host or cells: Sf9 insect cells
T3 sequence (P17948 781-1338): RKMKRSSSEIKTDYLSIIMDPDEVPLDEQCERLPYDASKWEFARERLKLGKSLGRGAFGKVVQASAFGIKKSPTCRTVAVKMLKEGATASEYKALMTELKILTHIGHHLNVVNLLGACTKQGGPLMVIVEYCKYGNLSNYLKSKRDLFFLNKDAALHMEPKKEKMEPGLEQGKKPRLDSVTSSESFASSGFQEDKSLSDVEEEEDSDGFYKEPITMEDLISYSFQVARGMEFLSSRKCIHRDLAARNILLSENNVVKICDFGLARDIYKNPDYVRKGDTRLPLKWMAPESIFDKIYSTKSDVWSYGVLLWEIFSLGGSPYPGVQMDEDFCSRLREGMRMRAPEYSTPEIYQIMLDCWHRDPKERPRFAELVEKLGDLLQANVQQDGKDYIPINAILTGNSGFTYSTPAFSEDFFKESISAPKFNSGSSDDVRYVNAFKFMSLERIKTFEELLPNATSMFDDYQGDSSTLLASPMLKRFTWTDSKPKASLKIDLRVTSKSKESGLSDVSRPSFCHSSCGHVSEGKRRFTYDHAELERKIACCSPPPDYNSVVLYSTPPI
Procedure: as §1

[4] = VEGFR2 assay, bound in μM, read-out: IC50
[5] = VEGFR2 assay, ranges in nM, read-out: IC50
[6] = VEGFR1 assay, bound in μM, read-out: IC50
[7] = VEGFR1 assay, bound in nM, read-out: IC50
[8] = IC50, VEGFR2 assay, bound in μM
[9] = IC50, VEGFR2 assay, ranges in nM
[10] = IC50, VEGFR1 assay, bound in μM

T2 sequence (P35968 789-1356): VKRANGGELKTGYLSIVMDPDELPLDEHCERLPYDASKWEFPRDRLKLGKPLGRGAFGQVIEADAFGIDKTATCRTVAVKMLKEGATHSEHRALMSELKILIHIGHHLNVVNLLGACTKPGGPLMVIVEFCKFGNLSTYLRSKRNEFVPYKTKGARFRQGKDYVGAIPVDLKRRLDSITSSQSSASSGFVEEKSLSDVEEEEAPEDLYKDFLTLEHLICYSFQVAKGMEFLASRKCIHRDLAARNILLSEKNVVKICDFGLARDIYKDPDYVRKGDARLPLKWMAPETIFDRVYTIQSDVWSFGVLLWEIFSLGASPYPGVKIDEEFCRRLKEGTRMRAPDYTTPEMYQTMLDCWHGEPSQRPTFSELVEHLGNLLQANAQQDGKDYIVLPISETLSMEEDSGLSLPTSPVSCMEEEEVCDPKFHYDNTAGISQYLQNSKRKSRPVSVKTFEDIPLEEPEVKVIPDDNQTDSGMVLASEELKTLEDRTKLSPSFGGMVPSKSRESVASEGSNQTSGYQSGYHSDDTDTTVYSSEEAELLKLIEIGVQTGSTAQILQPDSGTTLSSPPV

Row | SMILES | IC50 [1] | IC50 [2, 4] | IC50 [2, 5] | further results
1 | CN1CCN(c2ccc(C(=O)Nc3cc(-c4ccc(N)cc4)n[nH]3)cc2)CC1 [Compound 2, N1-[3-(4-aminophenyl)-1H-5-pyrazolyl]-4-(4-methylpiperazino)benzamide] | 1 to 20 nM |  |  | 
2 | Cc1cc(-c2cc(NC(=O)c3ccc(N4CCN(C)CC4)cc3)[nH]n2)ccc1N [Compound 6, N1-[3-(4-amino-3-methylphenyl)-1H-5-pyrazolyl]-4-(4-methylpiperazino)benzamide] | 1 to 20 nM | < 1 µM | 0.055 to 0.4 µM | 
3 | CN1CCN(c2ccc(C(=O)Nc3cc(-c4ccc(NC(=O)Nc5cc(C(C)(C)C)on5)cc4)n[nH]3)cc2)CC1 [Compound 37, N1-(3-4-[([5-(tert-butyl)-3-isoxazolyl]aminocarbonyl)amino]phenyl-1H-5-pyrazolyl)-4-(4-methylpiperazino)benzamide] | 1 to 20 nM | < 1 µM | 0.001 to 0.055 µM | IC50 [3, 7]: < 0.1 µM; IC50 [3, 6]: < 1 µM
4 | CN1CCN(c2ccc(C(=O)Nc3cc(-c4ccc(CNC(=O)Nc5ccccc5)cc4)n[nH]3)cc2)CC1 [Compound 51, N1-[3-(4-[(anilinocarbonyl)amino]methylphenyl)-1H-5-pyrazolyl]-4-(4-methylpiperazino)benzamide] | 1 to 20 nM | < 1 µM | 0.001 to 0.055 µM | 
5 | CN1CCN(c2ccc(C(=O)Nc3cc(-c4ccc(NC(=O)Oc5ccccc5)cc4)n[nH]3)cc2)CC1 [Compound 68, Phenyl-N-[4-(5-[4-(4-methylpiperazino)benzoyl]amino-1H-3-pyrazolyl)phenyl]carbamate] | 1 to 20 nM |  |  | IC50 [2, 8]: < 1 µM; IC50 [2, 9]: 0.055 to 0.4 µM; IC50 [3, 10]: < 1 µM
6 | O=C(NCc1ccc(-c2cc(NC(=O)c3ccc(OCCN4CCCC4)cc3)[nH]n2)cc1)OCc1ccccc1 [Compound 73, Benzyl-N-[4-(5-[4-(2-tetrahydro-1H-1-pyrrolylethoxy)benzoyl]amino-1H-3-pyrazolyl)benzyl]carbamate] | 1 to 20 nM | < 1 µM | 0.055 to 0.4 µM | IC50 [3, 7]: < 0.1 µM; IC50 [3, 6]: < 1 µM
7 | O=C(NCc1ccc(-c2cc(NC(=O)c3ccc(OCCN4CCOCC4)cc3)[nH]n2)cc1)OCc1cccnc1 [Compound 80, 3-Pyridylmethyl-N-[4-(5-[4-(2-morpholinoethoxy)benzoyl]amino-1H-3-pyrazolyl)benzyl]carbamate] | 1 to 20 nM |  |  | 
8 | CN1CCN(c2ccc(C(=O)Nc3cc(-c4ccc(CNC(=O)Oc5ccccc5)cc4)n[nH]3)cc2)CC1 [Compound 82, Phenyl-N-[4-(5-[4-(4-methylpiperazino)benzoyl]amino-1H-3-pyrazolyl)benzyl]carbamate] | 1 to 20 nM |  |  | IC50 [2, 8]: < 1 µM; IC50 [2, 9]: 0.055 to 0.4 µM; IC50 ([3]; IC50, VEGFR1 assay, bound in nM): < 0.1 µM; IC50 [3, 10]: < 1 µM
9 | Cc1nc(Nc2cc(-c3ccc(CNC(=O)OCc4ccccc4)cc3)n[nH]2)cc(N2CCN(C)CC2)n1 [Compound 96, Benzyl-N-[4-(5-[2-methyl-6-(4-methylpiperazino)-4-pyrimidinyl]amino-1H-3-pyrazolyl)benzyl]carbamate] | 1 to 20 nM | < 1 µM | 0.055 to 0.4 µM | IC50 [3, 6]: < 1 µM
10 | Cc1nc(Nc2cc(-c3ccc(CNC(=O)OCc4ccccc4)cc3)n[nH]2)cc(N2CCN(CCO)CC2)n1 [Compound 97, Benzyl-N-4-[5-(6-[4-(2-hydroxyethyl)piperazino]-2-methyl-4-pyrimidinylamino)-1H-3-pyrazolyl]benzylcarbamate] | 1 to 20 nM | < 1 µM | 0.055 to 0.4 µM | 
11 | Cc1nc(Nc2cc(-c3ccc(CNC(=O)OCc4cc(C)on4)cc3)n[nH]2)cc(N2CCN(C)CC2)n1 [Compound 99, (5-Methyl-3-isoxazolyl)methyl-N-[4-(5-[2-methyl-6-(4-methylpiperazino)-4-pyrimidinyl]amino-1H-3-pyrazolyl)benzyl]carbamate] | 1 to 20 nM |  |  | 
12 | Cc1nc(Nc2cc(-c3ccc(CNC(=O)OCc4cccnc4)cc3)n[nH]2)cc(N2CCN(C)CC2)n1 [Compound 101, 3-Pyridylmethyl-N-[4-(5-[2-methyl-6-(4-methylpiperazino)-4-pyrimidinyl]amino-1H-3-pyrazolyl)benzyl]carbamate] | 1 to 20 nM |  |  | 

Second part, led by results:

Row | IC50 [1] | IC50 [2, 4] | IC50 [2, 5] | SMILES | further results
13 | 1 to 20 nM |  |  | CN1CCN(c2ccc(C(=O)Nc3cc(-c4ccc(CNC(=O)c5ccccc5)cc4)n[nH]3)cc2)CC1 [Compound 11, N1-(3-4-[(benzoylamino)methyl]phenyl-1H-5-pyrazolyl)-4-(4-methylpiperazino)benzamide] | 
14 | 1 to 20 nM | < 1 µM | 0.055 to 0.4 µM | O=C(Nc1cc(-c2cccc(NS(=O)(=O)c3ccccc3)c2)n[nH]1)c1ccc(OCCN2CCCC2)cc1 [Compound 24, N1-(3-3-[(phenylsulfonyl)amino]phenyl-1H-5-pyrazolyl)-4-(2-tetrahydro-1H-1-pyrrolylethoxy)benzamide] | IC50 [3, 6]: < 1 µM
15 | 1 to 20 nM | < 1 µM | 0.001 to 0.055 µM | Cc1cc(NC(=O)NCc2ccc(-c3cc(NC(=O)c4ccc(OCCN5CCCC5)cc4)[nH]n3)cc2)no1 [Compound 57, N1-(3-4-[([(5-methyl-3-isoxazolyl)amino]carbonylamino)methyl]phenyl-1H-5-pyrazolyl)-4-(2-tetrahydro-1H-1-pyrrolylethoxy)benzamide] | 
16 | 1 to 20 nM | < 1 µM | 0.001 to 0.055 µM | CC(C)(C)c1cc(NC(=O)NCc2ccc(-c3cc(NC(=O)c4ccc(OCCN5CCOCC5)cc4)[nH]n3)cc2)no1 [Compound 60, N1-[3-(4-[([5-(tert-butyl)-3-isoxazolyl]aminocarbonyl)amino]methylphenyl)-1H-5-pyrazolyl]-4-(2-morpholinoethoxy)benzamide] | 
17 | 1 to 20 nM | < 1 µM | 0.055 to 0.4 µM | Cc1cc(COC(=O)NCc2ccc(-c3cc(NC(=O)c4ccc(N5CCN(C)CC5)cc4)[nH]n3)cc2)no1 [Compound 75, (5-Methyl-3-isoxazolyl)methyl-N-[4-(5-[4-(4-methylpiperazino)benzoyl]amino-1H-3-pyrazolyl)benzyl]carbamate] | IC50 [3, 6]: < 1 µM
18 | 1 to 20 nM |  |  | CN1CCN(Cc2ccc(C(=O)Nc3cc(-c4ccc(CNC(=O)OCc5ccccc5)cc4)n[nH]3)cc2)CC1 [Compound 77, Benzyl-N-4-[5-(4-[(4-methylpiperazino)methyl]benzoylamino)-1H-3-pyrazolyl]benzylcarbamate] | 
